# ChEMBL document CHEMBL3714736, “Heterocyclic compounds for the inhibition of PASK” (2015)
# Activity calls are given as the source filed them. No cut-off for these calls is given here.
# Tests used:
# [1] = biological target: T1, PAS domain-containing serine/threonine-protein kinase (Homo sapiens, UniProt Q96RG2); assay: Inhibition of human recombinant PASK using Ulight-peptide substrate incubated for 2 hrs by TR-FRET assay
# Mus musculus [2] = assay: Reduction in plasma glucose level in high-fat diet fed C57B16 mouse with fast/re-feed at 100 mg/kg, po daily for 3 days by colorimetric assay; assay type: functional; details: 72 h
# Mus musculus [3] = assay: Reduction in plasma glucose level in fasted C57B16 mouse at 30 to 100 mg/kg, po daily for 3 days by colorimetric assay; assay type: functional, organism-based
# Mus musculus [4] = assay: Reduction in plasma glucose level in high-fat diet fed C57B16 mouse with fast/re-feed at 30 to 100 mg/kg, po daily for 3 days by colorimetric assay; assay type: functional, organism-based
# Rattus norvegicus [5] = assay: Reduction in liver weight in high fructose diet fed Sprague-Dawley rat with fast/re-feed at 100 mg/kg, po dosed once daily for 7 days; assay type: functional; details: 168 h
# Mus musculus [6] = assay: Reduction in plasma insulin level in fasted fed C57B16 mouse at 30 mg/kg, po daily for 3 days by colorimetric assay; assay type: functional; details: 72 h
# Mus musculus [7] = assay: Reduction in plasma insulin level in high-fat diet fed C57B16 mouse with fast/re-feed at 30 to 100 mg/kg, po daily for 3 days by colorimetric assay; assay type: functional, organism-based
# Rattus norvegicus [8] = assay: Reduction in body weight in high fructose diet fed Sprague-Dawley rat with fast/re-feed at 30 and 100 mg/kg, po dosed once daily for 7 days; assay type: functional, organism-based
# Rattus norvegicus [9] = assay: Reduction in plasma cholesterol level in high fructose diet fed Sprague-Dawley rat with fast/re-feed at 30 and 100 mg/kg, po dosed once daily for 7 days by colorimetric assay; assay type: functional, organism-based
# Mus musculus [10] = assay: Reduction in body weight in high-fat diet fed C57B16 mouse with fast/re-feed at 30 to 100 mg/kg, po daily for 3 days; assay type: functional, organism-based
# Mus musculus [11] = assay: Reduction in liver weight in high-fat diet fed C57B16 mouse with fast/re-feed at 30 to 100 mg/kg, po daily for 3 days; assay type: functional
# Mus musculus [12] = assay: Reduction in liver weight in high-fat diet fed C57B16 mouse with fast/re-feed at 30 mg/kg, po daily for 3 days; assay type: functional
# Mus musculus [13] = assay: Reduction in plasma insulin level in fasted fed C57B16 mouse at 100 mg/kg, po daily for 3 days by colorimetric assay; assay type: functional; details: 72 h
# Rattus norvegicus [14] = assay: Reduction in plasma triglyceride level in high fructose diet fed Sprague-Dawley rat with fast/re-feed at 30 and 100 mg/kg, po dosed once daily for 7 days by colorimetric assay; assay type: functional, organism-based
# Mus musculus [15] = assay: Reduction in liver weight in high-fat diet fed C57B16 mouse with fast/re-feed at 100 mg/kg, po daily for 3 days; assay type: functional; details: for inhibition in vivo at 100 mg/kg: 72 h
# Rattus norvegicus [16] = assay: Reduction in liver weight in high fructose diet fed Sprague-Dawley rat with fast/re-feed at 30 and 100 mg/kg, po dosed once daily for 7 days; assay type: functional, organism-based
# Rattus norvegicus [17] = assay: Reduction in plasma glucose level in high fructose diet fed Sprague-Dawley rat with fast/re-feed at 30 and 100 mg/kg, po dosed once daily for 7 days by colorimetric assay; assay type: functional, organism-based
# [18] = biological target: T1, PAS domain-containing serine/threonine-protein kinase; assay: Inhibition of N-terminal GST-tagged human recombinant PASK kinase domain (879 to 1323 residues) expressed in insect cells using MBP protein substrate incubated for 120 mins in presence of [33P]ATP by scintillation counting based radiochemical assay
# Rattus norvegicus [19] = assay: Increase in liver weight in high fructose diet fed Sprague-Dawley rat with fast/re-feed at 30 mg/kg, po dosed once daily for 7 days; assay type: ADME, organism-based; details: in vivo, 168 h
# Rattus norvegicus [20] = assay: Reduction in body weight in high fructose diet fed Sprague-Dawley rat with fast/re-feed at 30 mg/kg, po dosed once daily for 7 days; assay type: functional, organism-based
# Rattus norvegicus [21] = assay: Reduction in plasma glucose level in high fructose diet fed Sprague-Dawley rat with fast/re-feed at 30 mg/kg, po dosed once daily for 7 days by colorimetric assay; assay type: functional
# T1 sequence (Q96RG2 whole entry, the tested form may be a part): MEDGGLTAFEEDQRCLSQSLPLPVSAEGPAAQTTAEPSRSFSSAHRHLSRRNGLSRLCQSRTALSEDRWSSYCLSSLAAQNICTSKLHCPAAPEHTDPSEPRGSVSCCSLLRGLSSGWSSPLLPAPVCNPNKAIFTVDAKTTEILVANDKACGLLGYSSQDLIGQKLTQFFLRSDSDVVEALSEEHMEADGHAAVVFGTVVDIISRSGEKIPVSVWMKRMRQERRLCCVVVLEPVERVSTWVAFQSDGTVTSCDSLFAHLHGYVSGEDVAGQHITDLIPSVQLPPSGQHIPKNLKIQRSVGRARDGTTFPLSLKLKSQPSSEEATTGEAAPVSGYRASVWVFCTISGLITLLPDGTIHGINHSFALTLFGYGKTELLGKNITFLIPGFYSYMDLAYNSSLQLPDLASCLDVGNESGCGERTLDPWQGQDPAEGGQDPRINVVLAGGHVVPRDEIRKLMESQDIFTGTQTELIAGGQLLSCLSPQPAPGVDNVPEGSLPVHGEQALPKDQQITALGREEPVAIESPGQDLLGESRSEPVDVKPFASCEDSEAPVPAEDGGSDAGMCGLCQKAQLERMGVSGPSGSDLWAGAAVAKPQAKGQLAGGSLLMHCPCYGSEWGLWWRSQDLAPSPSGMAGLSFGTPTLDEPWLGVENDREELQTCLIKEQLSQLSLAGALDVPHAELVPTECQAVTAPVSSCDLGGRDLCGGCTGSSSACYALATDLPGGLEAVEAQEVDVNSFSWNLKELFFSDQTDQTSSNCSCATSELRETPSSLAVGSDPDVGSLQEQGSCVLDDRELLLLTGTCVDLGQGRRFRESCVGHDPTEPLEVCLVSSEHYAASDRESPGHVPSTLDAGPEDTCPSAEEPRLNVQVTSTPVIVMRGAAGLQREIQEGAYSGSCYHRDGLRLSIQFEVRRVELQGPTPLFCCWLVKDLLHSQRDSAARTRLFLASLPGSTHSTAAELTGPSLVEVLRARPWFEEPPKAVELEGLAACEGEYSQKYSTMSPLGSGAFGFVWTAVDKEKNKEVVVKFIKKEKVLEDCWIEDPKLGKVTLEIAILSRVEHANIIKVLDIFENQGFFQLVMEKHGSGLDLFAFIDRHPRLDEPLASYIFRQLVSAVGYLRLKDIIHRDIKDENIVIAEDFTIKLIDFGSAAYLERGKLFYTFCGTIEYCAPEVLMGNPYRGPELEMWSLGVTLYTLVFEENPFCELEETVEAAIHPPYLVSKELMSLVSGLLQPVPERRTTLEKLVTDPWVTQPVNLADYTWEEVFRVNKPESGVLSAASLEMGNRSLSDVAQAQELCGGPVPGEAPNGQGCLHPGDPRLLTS
structure (smiles),measurement,setting,value
O=C(O)c1ccc2nc(-c3ccc4c(c3)OCO4)c(N3CCCc4ccccc43)nc2c1,IC50,[1],≤ 10 µM
CC(C)N(C)c1nc2cc(C(=O)O)ccc2nc1-c1ccc(F)cc1,inhibition in vivo at 100 mg/kg,Mus musculus [2],≤ 27%
same,inhibition,Mus musculus [3],Dose-dependent effect
same,inhibition,Mus musculus [4],Dose-dependent effect
same,inhibition in vivo at 100 mg/kg,Rattus norvegicus [5],4%
same,inhibition in vivo at 30 mg/kg,Mus musculus [6],≤ 26%
same,inhibition,Mus musculus [7],Dose-dependent effect
same,inhibition,Rattus norvegicus [8],Active
same,inhibition,Rattus norvegicus [9],Active
same,inhibition,Mus musculus [10],Dose-dependent effect
same,inhibition,Mus musculus [11],Dose-dependent effect
same,inhibition (INH),Mus musculus [11],7%
same,inhibition,Mus musculus [12],Dose-dependent effect
same,inhibition in vivo at 30 mg/kg,Mus musculus [12]; 72 h,7%
same,inhibition in vivo at 100 mg/kg,Mus musculus [13],≤ 26%
same,inhibition,Rattus norvegicus [14],Dose-dependent effect
same,inhibition,Mus musculus [15],Dose-dependent effect
same,inhibition in vivo at 100 mg/kg,Mus musculus [15],7%
same,inhibition,Rattus norvegicus [16],Active
same,inhibition,Rattus norvegicus [17],Dose-dependent effect
CN(C1CCN(c2nc3cc(C(=O)O)ccc3nc2-c2ccccc2)CC1)S(C)(=O)=O,IC50,[18],≤ 10 µM
CC(C)OC(=O)C1=CN(C(=O)c2ccc(F)c(F)c2)CC(C)(C)c2c1[nH]c1ccccc21 [TUROFEXORATE ISOPROPYL],Activity,Rattus norvegicus [19],15%
same,Activity,Rattus norvegicus [20],inactive
same,inhibition,Rattus norvegicus [21],inactive
same,inhibition in vivo at 100 mg/kg,Mus musculus [15],7%
CC(C)N(C)c1nc2cc(C(=O)O)ccc2nc1-c1ccc2nccn2c1,IC50,[1],≤ 10 µM
